# Assay results: paper PMC5224920, “Assessing the mechanism and therapeutic potential of modulators of the human Mediator complex-associated protein kinases” (eLife, 2016)
# Test system: 12 single or co-culture in vitro tissue models of primary cells
# Test: Culture/co-culture cell model panel, extracellular biomarkers (DiscoveRx); for CCL2/MCP-1: reference of the scale not given here; for CD38: reference of the scale not given here; for CD40: reference of the scale not given here; for CD69: reference of the scale not given here; for CXCL8/IL-8: reference of the scale not given here; for CXCL9/MIG: reference of the scale not given here; for IL-1alpha: reference of the scale not given here; for PBMC Cytotoxicity: reference of the scale not given here; for SRB: reference of the scale not given here
# Assay type: cell-based, human
compound,measurement,setting,value
Cc1n[nH]c2ncc(C(=O)N3CCC[C@H]3c3ccc(Cl)cc3)cc12 [CMPD4],CCL26/Eotaxin-3,"/TH2, 3.33E3 nM",-0.151
same,CD38,"/TH2, 3.33E3 nM",-0.023
same,CD40,"/TH2, 3.33E3 nM",-0.167
same,CD62E/E-Selectin,"/TH2, 3.33E3 nM",0.088
same,CD62P/P-selectin,"/TH2, 3.33E3 nM",-0.076
same,CD69,"/TH2, 3.33E3 nM",0.020
same,CD87/uPAR,"/TH2, 3.33E3 nM",-0.191
same,CD106/VCAM-1,"/TH2, 3.33E3 nM",0.009
same,CXCL8/IL-8,"/TH2, 3.33E3 nM",-0.082
same,CXCL9/MIG,"/TH2, 3.33E3 nM",-0.033
same,Collagen IV,"/TH2, 3.33E3 nM",0.00458
same,PBMC Cytotoxicity,"/TH2, 3.33E3 nM",-0.051
same,SRB,"/TH2, 3.33E3 nM",-0.131
same,sIL-17A,"/TH2, 3.33E3 nM",0.034
same,sIL-17F,"/TH2, 3.33E3 nM",0.022
same,CCL2/MCP-1,"/TH2, 3.70E2 nM",-0.111
same,CCL26/Eotaxin-3,"/TH2, 3.70E2 nM",-0.170
same,CD38,"/TH2, 3.70E2 nM",0.020
same,CD40,"/TH2, 3.70E2 nM",-0.169
same,CD62E/E-Selectin,"/TH2, 3.70E2 nM",0.039
same,CD62P/P-selectin,"/TH2, 3.70E2 nM",-0.043
same,CD69,"/TH2, 3.70E2 nM",0.055
same,CD87/uPAR,"/TH2, 3.70E2 nM",-0.203
same,CD106/VCAM-1,"/TH2, 3.70E2 nM",0.023
same,CXCL8/IL-8,"/TH2, 3.70E2 nM",-0.040
same,CXCL9/MIG,"/TH2, 3.70E2 nM",-0.019
same,Collagen IV,"/TH2, 3.70E2 nM",-0.00656
same,PBMC Cytotoxicity,"/TH2, 3.70E2 nM",0.007
same,SRB,"/TH2, 3.70E2 nM",-0.083
same,sIL-17A,"/TH2, 3.70E2 nM",0.040
same,sIL-17F,"/TH2, 3.70E2 nM",0.00074
same,CCL2/MCP-1,"/TH2, 4.12E1 nM",-0.080
same,CCL26/Eotaxin-3,"/TH2, 4.12E1 nM",-0.157
same,CD38,"/TH2, 4.12E1 nM",0.006
same,CD40,"/TH2, 4.12E1 nM",-0.170
same,CD62E/E-Selectin,"/TH2, 4.12E1 nM",0.069
same,CD62P/P-selectin,"/TH2, 4.12E1 nM",-0.051
same,CD69,"/TH2, 4.12E1 nM",0.028
same,CD87/uPAR,"/TH2, 4.12E1 nM",-0.181
same,CD106/VCAM-1,"/TH2, 4.12E1 nM",0.009
same,CXCL8/IL-8,"/TH2, 4.12E1 nM",-0.049
same,CXCL9/MIG,"/TH2, 4.12E1 nM",-0.018
same,Collagen IV,"/TH2, 4.12E1 nM",-0.002
same,PBMC Cytotoxicity,"/TH2, 4.12E1 nM",-0.057
same,SRB,"/TH2, 4.12E1 nM",-0.051
same,sIL-17A,"/TH2, 4.12E1 nM",0.042
same,sIL-17F,"/TH2, 4.12E1 nM",0.053
same,CCL2/MCP-1,"/TH2, 4.57E0 nM",-0.000419
same,CCL26/Eotaxin-3,"/TH2, 4.57E0 nM",-0.103
same,CD38,"/TH2, 4.57E0 nM",-0.00453
same,CD40,"/TH2, 4.57E0 nM",-0.110
same,CD62E/E-Selectin,"/TH2, 4.57E0 nM",0.029
same,CD62P/P-selectin,"/TH2, 4.57E0 nM",0.013
same,CD69,"/TH2, 4.57E0 nM",0.026
same,CD87/uPAR,"/TH2, 4.57E0 nM",-0.100
same,CD106/VCAM-1,"/TH2, 4.57E0 nM",0.017
same,CXCL8/IL-8,"/TH2, 4.57E0 nM",0.027
same,CXCL9/MIG,"/TH2, 4.57E0 nM",0.021
same,Collagen IV,"/TH2, 4.57E0 nM",0.011
same,PBMC Cytotoxicity,"/TH2, 4.57E0 nM",-0.009
same,SRB,"/TH2, 4.57E0 nM",-0.014
same,sIL-17A,"/TH2, 4.57E0 nM",0.056
same,sIL-17F,"/TH2, 4.57E0 nM",0.044
same,CCL26/Eotaxin-3,"BENo, 1.00E4 nM",0.048
same,CD54/ICAM-1,"BENo, 1.00E4 nM",-0.115
same,CD87/uPAR,"BENo, 1.00E4 nM",-0.014
same,CXCL8/IL-8,"BENo, 1.00E4 nM",-0.033
same,CXCL9/MIG,"BENo, 1.00E4 nM",0.082
same,CXCL10/IP-10,"BENo, 1.00E4 nM",-0.00135
same,CXCL11/I-TAC,"BENo, 1.00E4 nM",-0.038
same,EGFR,"BENo, 1.00E4 nM",0.006
same,HLA-DR,"BENo, 1.00E4 nM",-0.032
same,IL-1alpha,"BENo, 1.00E4 nM",-0.034
same,Keratin 8/18,"BENo, 1.00E4 nM",-0.032
same,MMP-1,"BENo, 1.00E4 nM",0.000562
same,MMP-9,"BENo, 1.00E4 nM",-0.051
same,PAI-I,"BENo, 1.00E4 nM",-0.097
same,SRB,"BENo, 1.00E4 nM",-0.020
same,tPA,"BENo, 1.00E4 nM",-0.115
same,uPA,"BENo, 1.00E4 nM",-0.041
same,CCL26/Eotaxin-3,"BENo, 1.11E3 nM",-0.033
same,CD54/ICAM-1,"BENo, 1.11E3 nM",-0.081
same,CD87/uPAR,"BENo, 1.11E3 nM",-0.049
same,CXCL8/IL-8,"BENo, 1.11E3 nM",-0.031
same,CXCL9/MIG,"BENo, 1.11E3 nM",-0.00357
same,CXCL10/IP-10,"BENo, 1.11E3 nM",-0.058
same,CXCL11/I-TAC,"BENo, 1.11E3 nM",-0.048
same,EGFR,"BENo, 1.11E3 nM",0.007
same,HLA-DR,"BENo, 1.11E3 nM",0.036
same,IL-1alpha,"BENo, 1.11E3 nM",-0.027
same,Keratin 8/18,"BENo, 1.11E3 nM",3.05e-5
same,MMP-1,"BENo, 1.11E3 nM",-0.038
same,MMP-9,"BENo, 1.11E3 nM",-0.005
same,PAI-I,"BENo, 1.11E3 nM",-0.107
same,SRB,"BENo, 1.11E3 nM",0.008
same,tPA,"BENo, 1.11E3 nM",-0.047
same,uPA,"BENo, 1.11E3 nM",-0.007
same,CCL26/Eotaxin-3,"BENo, 1.23E2 nM",-0.013
same,CD54/ICAM-1,"BENo, 1.23E2 nM",-0.092
same,CD87/uPAR,"BENo, 1.23E2 nM",-0.00225
same,CXCL8/IL-8,"BENo, 1.23E2 nM",-0.028
same,CXCL9/MIG,"BENo, 1.23E2 nM",-0.018
same,CXCL10/IP-10,"BENo, 1.23E2 nM",-0.010
same,CXCL11/I-TAC,"BENo, 1.23E2 nM",-0.021
same,EGFR,"BENo, 1.23E2 nM",0.013
same,HLA-DR,"BENo, 1.23E2 nM",0.00213
same,IL-1alpha,"BENo, 1.23E2 nM",0.008
same,Keratin 8/18,"BENo, 1.23E2 nM",-0.021
same,MMP-1,"BENo, 1.23E2 nM",-0.035
same,MMP-9,"BENo, 1.23E2 nM",-0.086
same,PAI-I,"BENo, 1.23E2 nM",-0.061
same,SRB,"BENo, 1.23E2 nM",0.015
same,tPA,"BENo, 1.23E2 nM",-0.029
same,uPA,"BENo, 1.23E2 nM",-0.020
same,CCL26/Eotaxin-3,"BENo, 1.37E1 nM",0.037
same,CD54/ICAM-1,"BENo, 1.37E1 nM",-0.062
same,CD87/uPAR,"BENo, 1.37E1 nM",0.021
same,CXCL8/IL-8,"BENo, 1.37E1 nM",-0.025
same,CXCL9/MIG,"BENo, 1.37E1 nM",-0.110
same,CXCL10/IP-10,"BENo, 1.37E1 nM",-0.013
same,CXCL11/I-TAC,"BENo, 1.37E1 nM",-0.064
same,EGFR,"BENo, 1.37E1 nM",0.011
same,HLA-DR,"BENo, 1.37E1 nM",0.054
same,IL-1alpha,"BENo, 1.37E1 nM",-0.002
same,Keratin 8/18,"BENo, 1.37E1 nM",-0.018
same,MMP-1,"BENo, 1.37E1 nM",-0.037
same,MMP-9,"BENo, 1.37E1 nM",-0.035
same,PAI-I,"BENo, 1.37E1 nM",-0.045
same,SRB,"BENo, 1.37E1 nM",0.023
same,tPA,"BENo, 1.37E1 nM",0.009
same,uPA,"BENo, 1.37E1 nM",-0.014
same,CCL26/Eotaxin-3,"BENo, 3.33E3 nM",-0.026
same,CD54/ICAM-1,"BENo, 3.33E3 nM",-0.069
same,CD87/uPAR,"BENo, 3.33E3 nM",-0.045
same,CXCL8/IL-8,"BENo, 3.33E3 nM",-0.035
same,CXCL9/MIG,"BENo, 3.33E3 nM",-0.00357
same,CXCL10/IP-10,"BENo, 3.33E3 nM",-0.006
same,CXCL11/I-TAC,"BENo, 3.33E3 nM",-0.044
same,EGFR,"BENo, 3.33E3 nM",0.00248
same,HLA-DR,"BENo, 3.33E3 nM",0.016
same,IL-1alpha,"BENo, 3.33E3 nM",-0.032
same,Keratin 8/18,"BENo, 3.33E3 nM",-0.033
same,MMP-1,"BENo, 3.33E3 nM",-0.028
same,MMP-9,"BENo, 3.33E3 nM",-0.009
same,PAI-I,"BENo, 3.33E3 nM",-0.091
same,SRB,"BENo, 3.33E3 nM",-0.011
same,tPA,"BENo, 3.33E3 nM",-0.052
same,uPA,"BENo, 3.33E3 nM",-0.052
same,CCL26/Eotaxin-3,"BENo, 3.70E2 nM",-0.028
same,CD54/ICAM-1,"BENo, 3.70E2 nM",-0.092
same,CD87/uPAR,"BENo, 3.70E2 nM",-0.025
same,CXCL8/IL-8,"BENo, 3.70E2 nM",-0.027
same,CXCL9/MIG,"BENo, 3.70E2 nM",-0.00262
same,CXCL10/IP-10,"BENo, 3.70E2 nM",-0.017
same,CXCL11/I-TAC,"BENo, 3.70E2 nM",-0.036
same,EGFR,"BENo, 3.70E2 nM",-0.014
same,HLA-DR,"BENo, 3.70E2 nM",-0.009
same,IL-1alpha,"BENo, 3.70E2 nM",-0.009
same,Keratin 8/18,"BENo, 3.70E2 nM",-0.013
same,MMP-1,"BENo, 3.70E2 nM",-0.038
same,MMP-9,"BENo, 3.70E2 nM",-0.012
same,PAI-I,"BENo, 3.70E2 nM",-0.072
same,SRB,"BENo, 3.70E2 nM",0.008
